Experimental data reported in paper PMC4490784, “Compensatory induction of MYC expression by sustained CDK9 inhibition via a BRD4-dependent mechanism” (eLife, 2015).

Assays:
ABL2 = biological target: T1, ABL2 (Homo sapiens, UniProt P42684); assay: KINOMEscan binding assay; settings: read-out: % Retention on Solid Support
T1 construct: purchased DiscoveRx KINOMEscan
How it was run: (§1)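 Active site-directed competition binding measured kinase engagement within a panel of over 400 kinases. i-CDK9 was tested at two concentrations, 1 and 10 µM.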

ACVRL1 = biological target: T2, ACVRL1 (Homo sapiens, UniProt P37023); assay: KINOMEscan binding assay; settings: read-out: % Retention on Solid Support
T2 construct: purchased DiscoveRx KINOMEscan
How it was run: as §1

DRAK1 = biological target: T3, DRAK1 (Homo sapiens, UniProt Q9UEE5); assay: KINOMEscan binding assay; settings: read-out: % Retention on Solid Support
T3 construct: purchased DiscoveRx KINOMEscan
How it was run: as §1

EPHA8 = biological target: T4, EPHA8 (Homo sapiens, UniProt P29322); assay: KINOMEscan binding assay; settings: read-out: % Retention on Solid Support
T4 construct: purchased DiscoveRx KINOMEscan
How it was run: as §1

ERK8 = biological target: T5, ERK8 (Homo sapiens, UniProt Q8TD08); assay: KINOMEscan binding assay; settings: read-out: % Retention on Solid Support
T5 construct: purchased DiscoveRx KINOMEscan
How it was run: as §1

FYN = biological target: T6, FYN (Homo sapiens, UniProt P06241); assay: KINOMEscan binding assay; settings: read-out: % Retention on Solid Support
T6 construct: purchased DiscoveRx KINOMEscan
How it was run: as §1

GRK4 = biological target: T7, GRK4 (Homo sapiens, UniProt P32298); assay: KINOMEscan binding assay; settings: read-out: % Retention on Solid Support
T7 construct: purchased DiscoveRx KINOMEscan
How it was run: as §1

PFTK1 = biological target: T8, PFTK1 (Homo sapiens, UniProt O94921); assay: KINOMEscan binding assay
T8 construct: purchased DiscoveRx KINOMEscan
How it was run: as §1

PIK3CG = biological target: T9, PIK3CG (Homo sapiens, UniProt P48736); assay: KINOMEscan binding assay; settings: read-out: % Retention on Solid Support
T9 construct: purchased DiscoveRx KINOMEscan
How it was run: as §1

RIOK3 = biological target: T10, RIOK3 (Homo sapiens, UniProt O14730); assay: KINOMEscan binding assay; settings: read-out: % Retention on Solid Support
T10 construct: purchased DiscoveRx KINOMEscan
How it was run: as §1

ROCK2 = biological target: T11, ROCK2 (Homo sapiens, UniProt O75116); assay: KINOMEscan binding assay; settings: read-out: % Retention on Solid Support
T11 construct: purchased DiscoveRx KINOMEscan
How it was run: as §1

S6K1 = S6K1 (Homo sapiens, UniProt P23443); assay: KINOMEscan binding assay; settings: 1 µM i-CDK9; read-out: % Retention on Solid Support
How it was run: as §1

[1] = biological target: T12, TYK2(JH2domain-pseudokinase) (Homo sapiens, UniProt P29597); assay: KINOMEscan binding assay
T12 construct: TYK2(JH2domain-pseudokinase); purchased DiscoveRx KINOMEscan
How it was run: as §1

CDK9 = CDK9 (Homo sapiens, UniProt P50750); assay: biochemical binding or enzymatic assay; set-up: purchased Invitrogen
Protocol: (§2) Finally, the selectivity profile of i-CDK9 toward other non-CDK kinases was also assessed using the KINOMEscan platform. […] Except for CLK4, for which no suitable assay was available, the rest of the kinases plus a selected group of others were re-examined for the concentration-dependent effect of i-CDK9 in either functional kinase assays or binding assays. […] Indeed, it has recently been reported that DYRK1A acts as a Pol II CTD Kinase at its target gene promoters ([Di Vona et al., 2015]).

[2] = biological target: JAK1(JH1domain-catalytic) (Homo sapiens, UniProt P23458); assay: biochemical binding or enzymatic assay; set-up: JAK1(JH1domain-catalytic); settings: Novartis
Protocol: as §2

[3] = biological target: JAK1(JH2domain-pseudokinase) (Homo sapiens, UniProt P23458); assay: biochemical binding or enzymatic assay; set-up: JAK1(JH2domain-pseudokinase); settings: Novartis
Protocol: as §2

CDK9-CycT1 = CDK9-CycT1 (Homo sapiens, UniProt P50750); assay: In vitro kinase reaction with baculovirus-produced recombinant kinase (SignalChem); assay type: biochemical; set-up: purchased SignalChem; host or cells: baculovirus-produced; settings: 80 nM i-CDK9

T9 sequence (P48736 whole entry): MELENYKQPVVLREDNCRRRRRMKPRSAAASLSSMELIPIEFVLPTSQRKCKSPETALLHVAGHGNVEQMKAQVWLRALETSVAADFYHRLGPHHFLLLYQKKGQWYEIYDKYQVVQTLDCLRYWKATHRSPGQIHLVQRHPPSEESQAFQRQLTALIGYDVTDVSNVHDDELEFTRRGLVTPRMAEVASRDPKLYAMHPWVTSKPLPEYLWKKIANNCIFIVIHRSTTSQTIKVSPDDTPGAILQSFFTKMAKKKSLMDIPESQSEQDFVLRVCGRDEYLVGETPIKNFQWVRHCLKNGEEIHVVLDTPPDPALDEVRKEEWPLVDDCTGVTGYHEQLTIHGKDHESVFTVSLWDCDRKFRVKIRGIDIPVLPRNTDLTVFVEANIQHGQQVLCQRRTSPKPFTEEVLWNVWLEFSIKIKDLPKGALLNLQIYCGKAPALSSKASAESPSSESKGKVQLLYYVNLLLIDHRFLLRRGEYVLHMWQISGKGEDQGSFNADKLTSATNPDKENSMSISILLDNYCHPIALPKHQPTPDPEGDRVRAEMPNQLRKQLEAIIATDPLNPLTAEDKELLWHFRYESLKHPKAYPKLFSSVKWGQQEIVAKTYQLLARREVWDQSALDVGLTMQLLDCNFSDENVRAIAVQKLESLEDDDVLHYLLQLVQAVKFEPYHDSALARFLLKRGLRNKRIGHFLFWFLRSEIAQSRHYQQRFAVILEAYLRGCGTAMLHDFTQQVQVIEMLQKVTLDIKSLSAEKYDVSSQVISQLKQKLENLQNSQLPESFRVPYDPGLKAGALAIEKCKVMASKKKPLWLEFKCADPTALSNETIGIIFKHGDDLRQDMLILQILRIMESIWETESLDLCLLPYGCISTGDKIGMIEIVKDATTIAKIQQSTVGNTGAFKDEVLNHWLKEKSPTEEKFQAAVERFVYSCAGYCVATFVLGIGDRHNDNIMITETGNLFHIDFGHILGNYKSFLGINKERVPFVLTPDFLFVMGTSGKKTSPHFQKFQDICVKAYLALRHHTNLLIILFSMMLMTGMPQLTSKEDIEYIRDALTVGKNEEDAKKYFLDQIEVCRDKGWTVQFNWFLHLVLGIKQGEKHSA
T4 sequence (P29322 28-1005): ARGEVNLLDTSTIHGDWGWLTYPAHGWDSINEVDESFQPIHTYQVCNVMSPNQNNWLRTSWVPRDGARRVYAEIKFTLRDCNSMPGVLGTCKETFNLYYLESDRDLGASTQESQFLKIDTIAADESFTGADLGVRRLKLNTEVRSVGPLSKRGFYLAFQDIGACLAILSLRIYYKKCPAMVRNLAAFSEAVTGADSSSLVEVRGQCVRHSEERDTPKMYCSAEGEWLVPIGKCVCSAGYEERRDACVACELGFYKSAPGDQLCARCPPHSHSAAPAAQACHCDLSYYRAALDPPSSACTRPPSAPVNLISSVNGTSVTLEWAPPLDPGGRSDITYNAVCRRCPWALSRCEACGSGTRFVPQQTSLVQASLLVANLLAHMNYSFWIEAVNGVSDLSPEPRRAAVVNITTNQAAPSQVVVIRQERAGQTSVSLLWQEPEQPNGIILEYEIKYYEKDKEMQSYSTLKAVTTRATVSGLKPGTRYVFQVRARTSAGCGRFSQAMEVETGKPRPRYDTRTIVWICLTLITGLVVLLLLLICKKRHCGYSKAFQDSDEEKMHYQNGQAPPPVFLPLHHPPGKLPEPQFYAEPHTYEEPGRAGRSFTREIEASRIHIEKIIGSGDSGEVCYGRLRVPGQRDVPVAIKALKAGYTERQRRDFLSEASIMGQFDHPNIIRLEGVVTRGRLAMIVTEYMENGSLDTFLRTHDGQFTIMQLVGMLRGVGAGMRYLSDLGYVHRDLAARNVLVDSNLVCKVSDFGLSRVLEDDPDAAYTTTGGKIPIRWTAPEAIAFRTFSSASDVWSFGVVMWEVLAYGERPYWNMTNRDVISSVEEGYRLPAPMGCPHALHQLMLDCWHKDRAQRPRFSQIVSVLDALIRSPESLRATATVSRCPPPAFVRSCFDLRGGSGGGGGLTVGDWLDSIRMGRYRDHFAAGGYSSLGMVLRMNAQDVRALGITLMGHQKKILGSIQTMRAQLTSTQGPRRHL
T12 sequence (P29597 556-888 limits assumed): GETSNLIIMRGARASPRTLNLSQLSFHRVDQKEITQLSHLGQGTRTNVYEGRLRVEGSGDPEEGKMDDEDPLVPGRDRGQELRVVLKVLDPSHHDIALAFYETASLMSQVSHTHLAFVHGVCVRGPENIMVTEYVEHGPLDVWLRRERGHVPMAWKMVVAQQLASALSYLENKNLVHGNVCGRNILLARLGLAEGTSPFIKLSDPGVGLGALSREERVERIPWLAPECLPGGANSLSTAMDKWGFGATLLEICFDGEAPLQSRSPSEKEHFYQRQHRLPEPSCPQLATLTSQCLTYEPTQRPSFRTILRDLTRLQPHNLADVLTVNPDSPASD
T1 sequence (P42684 whole entry): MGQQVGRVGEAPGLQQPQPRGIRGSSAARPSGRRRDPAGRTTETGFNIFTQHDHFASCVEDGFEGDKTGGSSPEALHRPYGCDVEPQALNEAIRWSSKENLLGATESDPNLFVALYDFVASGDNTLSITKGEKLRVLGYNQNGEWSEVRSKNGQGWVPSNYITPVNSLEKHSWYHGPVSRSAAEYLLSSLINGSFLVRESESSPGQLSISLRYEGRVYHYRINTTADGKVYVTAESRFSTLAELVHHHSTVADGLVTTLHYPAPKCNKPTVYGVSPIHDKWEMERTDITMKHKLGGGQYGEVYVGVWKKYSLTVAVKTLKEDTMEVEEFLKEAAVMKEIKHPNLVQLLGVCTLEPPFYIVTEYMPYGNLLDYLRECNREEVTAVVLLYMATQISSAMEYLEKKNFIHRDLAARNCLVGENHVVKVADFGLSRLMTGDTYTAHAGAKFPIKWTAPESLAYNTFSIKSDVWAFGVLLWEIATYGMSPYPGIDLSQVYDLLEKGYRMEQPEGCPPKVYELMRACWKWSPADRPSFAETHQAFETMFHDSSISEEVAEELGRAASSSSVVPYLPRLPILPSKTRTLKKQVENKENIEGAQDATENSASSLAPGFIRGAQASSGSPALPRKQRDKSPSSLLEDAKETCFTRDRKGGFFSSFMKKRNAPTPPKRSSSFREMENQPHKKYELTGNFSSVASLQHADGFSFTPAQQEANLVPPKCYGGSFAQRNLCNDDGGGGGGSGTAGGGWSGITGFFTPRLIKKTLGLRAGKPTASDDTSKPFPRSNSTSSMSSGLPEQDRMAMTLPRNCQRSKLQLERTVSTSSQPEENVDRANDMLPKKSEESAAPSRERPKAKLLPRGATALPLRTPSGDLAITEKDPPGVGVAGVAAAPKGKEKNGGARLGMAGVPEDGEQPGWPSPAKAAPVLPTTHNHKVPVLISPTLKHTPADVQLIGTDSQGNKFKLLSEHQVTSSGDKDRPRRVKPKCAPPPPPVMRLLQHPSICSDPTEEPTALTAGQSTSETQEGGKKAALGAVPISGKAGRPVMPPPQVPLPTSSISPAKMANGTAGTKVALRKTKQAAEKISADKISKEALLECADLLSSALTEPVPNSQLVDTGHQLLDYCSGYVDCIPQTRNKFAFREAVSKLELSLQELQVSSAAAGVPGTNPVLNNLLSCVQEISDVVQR
T11 sequence (O75116 whole entry): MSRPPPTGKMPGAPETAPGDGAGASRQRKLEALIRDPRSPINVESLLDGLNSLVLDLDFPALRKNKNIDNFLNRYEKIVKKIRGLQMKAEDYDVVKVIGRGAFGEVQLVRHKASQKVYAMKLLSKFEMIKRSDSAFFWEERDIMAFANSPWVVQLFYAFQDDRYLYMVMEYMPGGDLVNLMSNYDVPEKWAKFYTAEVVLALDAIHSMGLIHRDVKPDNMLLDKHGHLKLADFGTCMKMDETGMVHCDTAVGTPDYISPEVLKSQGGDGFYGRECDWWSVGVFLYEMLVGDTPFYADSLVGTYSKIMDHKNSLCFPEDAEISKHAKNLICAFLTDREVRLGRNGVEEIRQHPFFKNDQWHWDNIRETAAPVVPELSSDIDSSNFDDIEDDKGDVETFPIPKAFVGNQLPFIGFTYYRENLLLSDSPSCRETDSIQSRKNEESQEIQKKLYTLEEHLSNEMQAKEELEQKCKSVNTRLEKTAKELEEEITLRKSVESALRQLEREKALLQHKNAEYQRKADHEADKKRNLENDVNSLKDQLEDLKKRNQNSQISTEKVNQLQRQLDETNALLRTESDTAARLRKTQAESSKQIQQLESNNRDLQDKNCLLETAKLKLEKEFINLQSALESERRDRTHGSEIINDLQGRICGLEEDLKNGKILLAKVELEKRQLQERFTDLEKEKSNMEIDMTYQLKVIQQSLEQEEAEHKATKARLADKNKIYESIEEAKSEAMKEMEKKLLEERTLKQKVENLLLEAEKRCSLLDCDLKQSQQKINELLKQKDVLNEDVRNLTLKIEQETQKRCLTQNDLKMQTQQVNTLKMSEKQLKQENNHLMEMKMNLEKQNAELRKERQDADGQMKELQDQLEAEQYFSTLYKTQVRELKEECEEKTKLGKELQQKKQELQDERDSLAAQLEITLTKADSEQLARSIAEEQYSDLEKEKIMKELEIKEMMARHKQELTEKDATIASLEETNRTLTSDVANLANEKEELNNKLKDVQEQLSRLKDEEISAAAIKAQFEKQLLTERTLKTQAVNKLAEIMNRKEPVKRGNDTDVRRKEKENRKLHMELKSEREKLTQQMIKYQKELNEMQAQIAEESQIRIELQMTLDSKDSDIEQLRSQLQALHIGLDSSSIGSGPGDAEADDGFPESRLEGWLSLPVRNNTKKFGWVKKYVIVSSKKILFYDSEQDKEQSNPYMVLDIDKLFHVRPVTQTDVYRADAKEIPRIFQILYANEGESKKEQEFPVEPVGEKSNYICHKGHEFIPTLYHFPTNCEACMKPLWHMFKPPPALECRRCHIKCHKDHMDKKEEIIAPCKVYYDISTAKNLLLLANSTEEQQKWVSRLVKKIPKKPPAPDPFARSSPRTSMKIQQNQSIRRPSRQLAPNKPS

## N[C@H]1CC[C@H](Nc2cc(-c3cccc(NCc4cccc(F)c4)n3)c(Cl)cn2)CC1 [i-CDK9, N2′-(trans-4-aminocyclohexyl)-5′-chloro-N6-(3-fluorobenzyl)-2,4′-bipyridine-2′,6-diamine]
ABL2; 1 µM i-CDK9
  remaining binding at 1 µM: 100%
ABL2; 10 µM i-CDK9
  remaining binding at 10 µM: 100%
ACVRL1; 1 µM i-CDK9
  remaining binding at 1 µM: 95%
ACVRL1; 10 µM i-CDK9
  remaining binding at 10 µM: 100%
DRAK1; 1 µM i-CDK9
  remaining binding at 1 µM: 90%
DRAK1; 10 µM i-CDK9
  remaining binding at 10 µM: 48%
EPHA8; 1 µM i-CDK9
  remaining binding at 1 µM: 100%
EPHA8; 10 µM i-CDK9
  remaining binding at 10 µM: 100%
ERK8; 1 µM i-CDK9
  remaining binding at 1 µM: 85%
ERK8; 10 µM i-CDK9
  remaining binding at 10 µM: 20%
FYN; 1 µM i-CDK9
  remaining binding at 1 µM: 69%
FYN; 10 µM i-CDK9
  remaining binding at 10 µM: 100%
GRK4; 1 µM i-CDK9
  remaining binding at 1 µM: 100%
GRK4; 10 µM i-CDK9
  remaining binding at 10 µM: 100%
PFTK1; 1 µM i-CDK9
  % Retention on Solid Support: 76%
PFTK1; 10 µM i-CDK9
  % Retention on Solid Support: 5.4%
PIK3CG; 1 µM i-CDK9
  remaining binding at 1 µM: 100%
PIK3CG; 10 µM i-CDK9
  remaining binding at 10 µM: 100%
RIOK3; 1 µM i-CDK9
  remaining binding at 1 µM: 86%
RIOK3; 10 µM i-CDK9
  remaining binding at 10 µM: 73%
ROCK2; 1 µM i-CDK9
  remaining binding at 1 µM: 100%
ROCK2; 10 µM i-CDK9
  remaining binding at 10 µM: 90%
S6K1
  remaining binding at 1 µM: 100%
[1]; 1 µM i-CDK9
  % Retention on Solid Support: 100%
[1]; 10 µM i-CDK9
  % Retention on Solid Support: 86%
CDK9
  IC50: < 0.0004 µM
CDK9; selectivity
  fold difference between CDK9 and the next two best targets DYRK1A and DYRK1B: more than 100 fold
[2]
  IC50: > 10 µM
[3]
  IC50: > 10 µM
CDK9-CycT1
  inhibition of Ser2 phosphorylation: mostly inhibited
